# Experimental data as given in US12129313B2, “Anti-inflammatory use of peptide” (ENLITISA (SHANGHAI) PHARMACEUTICAL CO., LTD, priority 2017, dated 2024).
# Where no end group is shown, it is not given here. [ ]: non-standard residue; d: D form. Dopa = N[C@@H](Cc1ccc(O)c(O)c1)C(=O)O; Hyp = O=C(O)[C@@H]1C[C@@H](O)CN1
# Experiments:
# [1] = system: TNF-α; experiment: Air pouch model: ELISA of exudate for TNF-α; assay type: in vivo, mice; details: ±SD, doses and timing per Table 1
# Experimental: (§1) Air pouches were produced by subcutaneous injection of sterile air (5 mL) into the intrascapular area of the mice. After three days, another injection of air (3 mL) was performed to maintain the pouches. In order to induce acute inflammation, three days after this final injection, animals received an injection of sterile carrageenan solution (CP Kelco, Taixing, Jiangsu Province, China; 1%, 0.5 mL; produced by adding 0.1 g of carrageenan powder into a beaker containing 10 mL of 0.9% saline solution and stirring). Mice were pre-treated with test samples or vehicle 1 hour before and 23 hours after the carrageenan injection into the subcutaneous air pouch. […]
# (§2) Exudates were collected and volumes were quantified. The total number of cells was determined with a haematocytometer (ADVIA 2120 Hematology System, Siemens Healthineers). The exudates were centrifuged at 3000 rpm for 10 minutes at 4° C., and the supernatants were collected and stored at −20° C. for ELISA analysis using standard ELISA test kits (Biolegend™ from Dakewe Biotech Co., Beijing, China or Abcam™, Abcam (Shanghai) Trading Co. Ltd, China) and an ELISA reader (SH-1000 Hitachi, Japan) for tissue necrosis factor alpha (TNF-α), interleukin 1 beta (IL-1β), interleukin 6 (IL-6), interleukin 10 (IL-10), prostaglandin E2 (PGE2), interferon gamma (IFN-γ) and 5-hydroxytryptamine (5-HT; serotonin). […]
# [2] = system: TNF-α, IL-6, and IL-1β; experiment: Air Pouch Model II: ELISA of exudate; assay type: in vivo, mice; details: 300 μg/mouse into air pouch; FIGS. 2A-2C
# Experimental: (§3) Essentially the same procedure as that described in Example 1 above was followed, to treat mice by administering test samples or vehicle in accordance with Table 6 below.
# (§4) In this example, MAP Peptide powder was dissolved in saline water at a concentration of 0.6 mg/mL at pH 5.5. Then 0.5 mL of the solution was injected into each air pouch in the group.
# In this example, ELISA analysis was carried out for TNF-α, IL-6, and IL-1β, which are shown graphically in FIGS. 2A-2C, respectively.
# [3] = system: IL-6; experiment: Air pouch model: ELISA of exudate for IL-6; assay type: in vivo, mice; details: ±SD, doses and timing per Table 1
# Experimental: (§5) Air pouches were produced by subcutaneous injection of sterile air (5 mL) into the intrascapular area of the mice. After three days, another injection of air (3 mL) was performed to maintain the pouches. In order to induce acute inflammation, three days after this final injection, animals received an injection of sterile carrageenan solution (CP Kelco, Taixing, Jiangsu Province, China; 1%, 0.5 mL; produced by adding 0.1 g of carrageenan powder into a beaker containing 10 mL of 0.9% saline solution and stirring). Mice were pre-treated with test samples or vehicle 1 hour before and 23 hours after the carrageenan injection into the subcutaneous air pouch. Animals were sacrificed 24 hours after the carrageenan injection.
# Exudates were collected and volumes were quantified. […] The exudates were centrifuged at 3000 rpm for 10 minutes at 4° C., and the supernatants were collected and stored at −20° C. for ELISA analysis using standard ELISA test kits (Biolegend™ from Dakewe Biotech Co., Beijing, China or Abcam™, Abcam (Shanghai) Trading Co. Ltd, China) and an ELISA reader (SH-1000 Hitachi, Japan) for tissue necrosis factor alpha (TNF-α), interleukin 1 beta (IL-1β), interleukin 6 (IL-6), interleukin 10 (IL-10), prostaglandin E2 (PGE2), interferon gamma (IFN-γ) and 5-hydroxytryptamine (5-HT; serotonin).
# [4] = system: C57BL/6 mice; experiment: Air pouch model (carrageenan): exudate volume, pouch wall weight, exudate cell count; assay type: in vivo; set-up: Neutrophil (total cell count and classification) / Monocyte (total cell count and classification): unit not given here
# Experimental: Healthy adult male C57BL/6 mice weighing between 20 and 30 g were supplied by Nanjing Biomedical Research Institute (NBRI) of Nanjing University, China. Prior to any experiments being conducted, mice were housed under standardized conditions (at a constant temperature or 22±2° C., with alternating 12 hour periods of light and darkness), and were fed on a standard mouse diet with water, for about a week.
# General anesthesia was induced using intraperitoneal 3% chloral hydrate (Sinopharm Chemical Reagent Co., Ltd., Shanghai, China); 1 mL/10 g of body weight). The hair of the entire dorsum was shaved and depilated 1 day before sterile air injection.
# as §5
# The cavity was washed with 4 mL of sterile phosphate buffer solution (pH 7.4; prepared by dissolving 4 g of NaCl, 0.1 g of KCl, 1.749 g of Na2HPO4.12H2O and 0.1 g of KH2PO4 in ultrapure water, adjusting the pH to 7.4 with HCl and diluting with water to a total volume of 500 mL).
# Exudates were collected and volumes were quantified. The total number of cells was determined with a haematocytometer (ADVIA 2120 Hematology System, Siemens Healthineers). The exudates were centrifuged at 3000 rpm for 10 minutes at 4° C., and the supernatants were collected and stored at −20° C. for ELISA analysis using standard ELISA test kits (Biolegend™ from Dakewe Biotech Co., Beijing, China or Abcam™, Abcam (Shanghai) Trading Co. Ltd, China) and an ELISA reader (SH-1000 Hitachi, Japan) for tissue necrosis factor alpha (TNF-α), interleukin 1 beta (IL-1β), interleukin 6 (IL-6), interleukin 10 (IL-10), prostaglandin E2 (PGE2), interferon gamma (IFN-γ) and 5-hydroxytryptamine (5-HT; serotonin).
# After conducting some preliminary experiments to validate the model, an experiment was conducted in which mice were treated by administering test samples or vehicle in accordance with Table 1 below.
# In Table 1, the M1-B, M2-B, M1-A and M2-A samples are MAP (Mefp-1) solutions of specified concentrations administered at different times relative to the carrageenan injection, as specified in the table. The solutions were prepared as follows. Blue mussels were harvested in the coastal area of Shandong Province, China. Mussel feet were collected, cut into small pieces and homogenized in an extraction buffer comprising 5% acetic acid in 4 mol/L of aqueous urea. The crude extracts were collected after centrifuging and then purified by liquid chromatography. The purified protein (semi-finished product; concentration 8 mg/mL; purity as measured by HPLC 91.72%; pH 4.2) was stored at 0° C. The solutions that were employed below were prepared by adding saline solution to this semi-finished product to obtain the concentrations described in Table 1.
# Also in Table 1, “Test” is MAP Peptide, which was obtained from Innovagen AB, Sweden. The peptide was synthesized according to the relevant Mefp-1 amino acid sequence. The peptide powder was stored at −20° C. and dissolved in saline water at a concentration of 3.0 mg/mL, pH 5.5.
# Dexamethasone (MedChemExpress, Shanghai, China) was obtained in powder form and dissolved in ultrapure water to obtain a solution with a concentration as described in Table 1.
# All the substances listed in Table 1 were administrated topically by directly injecting into the air pouches.
# [5] = system: polymorphous light eruption; experiment: MAP Peptide liquid spray in subjects with polymorphous light eruption; assay type: in vivo; details: 1.5 mg/mL spray in WFI
# Experimental: MAP Peptide was dissolved in water for injection (WFI; prepared from TC-RO-0.25T/h-2 water treatment system, Yangzhou […] Treatment Devices & Engineering Co., Ltd., Yangzhou, China). The concentration of the solution was 1.5 mg/mL. The solution was loaded into a spray device. Enrolled subjects in the study were diagnosed with polymorphous light eruption (an inflammatory condition characterized by a rash caused by sun exposure in people who have developed sensitivity to sunlight). Prior to treatment, the patients presented symptoms including skin redness, papules, itching and swelling. Subjects were required to use the liquid spray in the morning and the evening after facial cleansing.
# [6] = system: IFN-γ; experiment: Air pouch model: ELISA of exudate for IFN-γ; assay type: in vivo, mice; details: ±SD, doses and timing per Table 1
# Experimental: as §1, §2
# [7] = system: C57BL/6 mice; experiment: Acute wound model: wound contraction ratio; assay type: in vivo
# Experimental: 6-8 weeks old male C57BL/6 mice were supplied by Changzhou Ovens Experimental Animal Co. Ltd (Changzhou, Jiangsu Province, China). Prior to any experiments being conducted, mice were housed under standardized conditions (at a constant temperature of 22±2° C., with alternating 12 hour periods of light and darkness), and were fed on a standard mouse diet with water, for about a week.
# General anesthesia was induced using intraperitoneal 3% chloral hydrate (1 mL/10 g of body weight). The hair on the back was shaved by a baby hair shaver and depilated with cream. The skin area was wiped and sterilized with 75% alcohol twice.
# An EMS skin biopsy punch (Electron Microscopy Sciences, P.O. Box 550, 1560 Industry Road, Hatfield, PA, USA) with 8 mm diameter was used to make a round wounds on each side of the midline of the back. The full thickness of skin was removed and the depth of the wound reached the fascia. Wounds were left open without a suture.
# Different drugs were administrated topically at 50 μL/wound, once daily from Day 0 to Day 12, as show in Table 8 below. […] The model group was given same amount of normal saline. There were 12 mice in each group.
# For this experiment, MAP Peptide was obtained from GL Biochem (Shanghai) Ltd. The peptide powder was stored at −20° C. and dissolved in saline at a concentration of 33 μg/m L.
# 20 μL of respective solutions were applied onto each wound surface in the relevant groups.
# Wounds were dressed with gauze and transparent dresser after drug administration. Photographs were taken for each wound every other day from Day 0. Photos were scanned into a computer, and wound areas calculated using ImageJ image analysis software (National Institutes of Health, […]).
# Photographs were taken for each wound every other day from Day 0. Wound healing was calculated by the wound contraction ratio (WCR) WCR=(A0−At)/A0×100% where A0 and At refer to the initial area at Day 0 and the wound area at the date of measurement (time t), respectively.
# [8] = system: C57BL/6 mice; experiment: Air Pouch Model II: histology scoring; assay type: in vivo
# Experimental: as §3, §4
# [9] = system: C57BL/6 mice; experiment: Air pouch model: histology scoring of pouch wall (HE stained slices); assay type: in vivo; set-up: key to Inflammation score / Edema Score / Motility score: 1 = mild, 2 = moderate, 3 = severe
# Experimental: as §5
# Skin biopsies were taken from the air pouches. A part of the biopsy was fixed in formalin (produced by adding ultra pure water to 50 mL of a 40% formaldehyde solution (Nanchang Rain Dew Experimental Equipment Co., Ltd., Nanchang, […] Provence, China) up to a total volume of 500 mL) and analyzed by histological embedding in paraffin wax, sectioning and staining.
# The histological specimens were analysed and an inflammation score, a motility score, an edema score and […] were estimated as follows.
# The HE stained slices were observed under an optical microscope and were scored (1, 2 or 3 points) according to the perceived inflammation level (in cases showing only a small amount of inflammatory cells scattered in the area—1 point (mild); in cases where many inflammatory cells were observed—2 points (moderate); and, in cases with diffuse infiltration—3 points (severe)). A similar scoring system was employed for edema levels (3 points for most severe and 1 point for mild) after overall observation. Motility scores represented the density of neutrophils, which employed the same methodology as that employed for inflammatory cells.
# [10] = air pouch exudate, doses and timing per Table 1
# [11] = ±SD, topical once daily, MAP 5 μg/wound, MAP Peptide 6.57 μg/wound
# [12] = 300 μg/mouse into air pouch, 1 hour before carrageenan
# [13] = histological description in words
substance,measurement,setting,value
AKPSY[Hyp][Hyp]T[Dopa]K [MAP Peptide],TNF-α,[1],58.49 ± 28.72
same,"anti-inflammatory effects (ELISA for TNF-α, IL-6, IL-1β)",[2],very strong anti-inflammatory effects
same,IL-6,[3],132.63 ± 137.34
same,Leukocyte (total cell count and classification),[4]; [10],4.74e+06 mL⁻¹
same,Monocyte (total cell count and classification),[4]; [10],81.54 ×10^6
same,Neutrophil (total cell count and classification),[4]; [10],296.32 ×10^6
same,Pouch Wall Weight,"[4]; mean ± SD, 24 hours after carrageenan, doses and timing per Table 1",0.60 ± 0.17 g
same,Exudate volume,"[4]; mean ± SD, 24 hours after carrageenan, injected into air pouch, per mouse: Positive 200 μg, M1-B/M1-A/Test 1.5 mg, M2-B/M2-A 4.5 mg, timing 1 hour (Positive, -B, Test) or 6 hours (-A), Table 1",3.43 ± 0.06 mL
same,erythema alleviation efficiency compared to MAP spray of same concentration,[5],much more rapid erythema alleviation efficiency
same,malaise,[5],inhibited malaise
same,subjects whose erythema completely disappeared in a few hours,[5],50%
same,tested subjects with itch completely relieved within 1 minute,[5],50%
same,time to alleviation of most of the observed erythema,[5],≤ 1 min
same,time to relief of itching,[5]; morning and evening,≤ 1 min
same,IFN-γ,[6],377.31 ± 198.68
same,"improvement rate, (WCR MAP Peptide Group−WCR MAP Group)/WCR MAP Group×100%","[7]; Day 6, versus MAP group",52.96%
same,effect on wound healing compared with MAP,"[7]; acute wound model, Table 9",stronger effect on wound healing than MAP
same,"wound contraction ratio (WCR), Day 2",[7]; [11],6.99 ± 2.02%
same,"wound contraction ratio (WCR), Day 4",[7]; [11],18.65 ± 1.87%
same,"wound contraction ratio (WCR), Day 6",[7]; [11],42.91 ± 0.57%
same,"wound contraction ratio (WCR), Day 8",[7]; [11],48.73 ± 1.65%
same,"wound contraction ratio (WCR), Day 0","[7]; ±SD, topical once daily, MAP 5 μg/wound, MAP Peptide 6.57 μg/wound, 8 mm full thickness wound",0.00 ± 0%
same,Inflammation score,"[8]; 300 μg/mouse (0.6 mg/mL, 0.5 mL) into air pouch, 1 hour before carrageenan",1.6
same,Edema Score,[8]; [12],1.8
same,Fibroplastic proliferation score,[8]; [12],0.2
same,Sum,"[8]; 300 μg/mouse, printed sums equal inflammation + edema scores only",3.4
same,Motility score,"[9]; density of neutrophils, 1 to 3 points, doses and timing per Table 1",1.00
same,chronic inflammatory cell infiltration of the pouch wall,[9]; [13],mild to moderate chronic inflammatory cell infiltration
same,edema of the pouch wall,[9]; [13],interstitial edema
same,neutrophil infiltration of the pouch wall,[9]; [13],a small amount of neutrophil infiltration
same,Edema Score,"[9]; pouch wall histology, 1 mild to 3 most severe, doses and timing per Table 1",1.00
same,Inflammation score,"[9]; pouch wall histology, 1 mild to 3 severe, doses and timing per Table 1",1.67
same,Sum,"[9]; sum of inflammation, edema and motility scores",3.67
